Results on 2 compounds are retold here after patent publication US8129137B2, “Two-photon probe for real-time monitoring of intracellular free zinc ions, method for preparing the probe and method for real-time monitoring of intracellular free zinc ions using the probe” (Korea University Industrial & Academic Collaboration …, priority 2008, dated 2012).

Assay [1] in a line: Dissociation constants for Zn2+ from one- and two-photon fluorescence titration. It is filed as binding. As to the method: MOPS buffer solutions (30 mM, pH 7.2, 0.1 M KCl) containing different amounts of ZnSO4 and 10 mM EGTA were prepared.
The concentration of free Zn^2+ ([Zn^2+]free) was calculated from KZn−EGTA^app, [EGTA]free, and [Zn^2+]total using Equation 1: [Zn^2+]free=[Zn^2+]total/(αZn×KZn−EGTA^app×[EGTA]free) (1) where KZn−EGTA^app=KZn−EGTA/αZnαEGTA, αZn=1+10^(pH−pK^1^)+10^(2pH−pK^1^−pK^2^)+10^(3pH−pK^1^−pK^2^−pK^3^) . . . , αEGTA=1+10^(pK^1^−pH+0.11)+10^(pK^1^+pK^2^−2pH+0.22)+10^(pK^1^+pK^2^+pK^3^−3pH+0.33) . . . , and [EGTA]free=[EGTA]total−[Zn^2+]total. Therefore,
Then, the stability constant (KZn−EGTA) of the EGTA−Zn^2+ complex was obtained by the known method. For EGTA (pH 7.2, 0.1 M KCl, 25° C.), pK1, pK2, pK3 and log^K^Zn−EGTA were 9.40, 8.79, 2.70 and 12.6, respectively. […]
In order to determine accurate dissociation constants for the two-photon probes, fluorescence titration curves were obtained from FIGS. 3a and 3e using Equation 2:
[formula] where F is the fluorescence intensity, Fmax is the maximum fluorescence intensity, Fo is the fluorescence intensity in the absence of Zn^2+, and [Zn^2+]free is the concentration of free Zn^2+.
The Kd value that best fits the titration curve ([…]) with Equation 2 was calculated by using the Excel program. […]

The next assay deals with 293 cells. The assay can be described thus: TPEF monitoring of labeled 293 cells after SNOC and TPEN. It is filed as cell-based. As to conditions: 10 mM SNOC, 0.1 mM TPEN, compared with AZn2. As for the experimental part: Referring to FIG. 14, the TPEF intensity increased gradually with time and then decreased abruptly upon addition of 0.1 mM TPEN, a membrane permeable Zn^2+chelator that can effectively remove Zn^2+.

The next assay deals with rat hippocampal slice. The assay can be described thus: Monitoring of Zn2+ in rat hippocampal slice by TPM. As to the method:
In this experimental example, TPM images were obtained from a part of acute rat hippocampal slice incubated with 10 μM AZn2 for 30 min at 37° C. Because the slice of a 14-day old rat was too big to show with one image, several TPM images were obtained in the same plane at ˜120 μm depth and combined. […]
The negligible TPEF (c) after addition of TPEN, which effectively remove the [Zn^2+]i, provides a supporting evidence for this observation.
When 50 mM KCl, a membrane depolarizer causing the release of Zn^2+, was added to the imaging solution, the TPEF intensity increased, and then decreased upon treatment with TPEN. Similar results can also be found in (d)-(f) of FIG. 15.

Regarding `Nc1ccc(NCCN(Cc2ccccn2)Cc2ccccn2)cc1` [AZn1], the “detection limit for Zn2+” value in assay [1] is on record as “sub-nM range”. In the assay on 293 cells, the “TPEF response after SNOC then TPEN” value was “the response was smaller”.

Consider `COc1cc(NC(=O)CN(C)c2ccc3cc(C(C)=O)ccc3c2)ccc1NCCN(Cc1ccccn1)Cc1ccccn1` [AZn2], for which, in assay [1], the “detection limit for Zn2+” value is “sub-nM range”. Besides, the “TPEF intensity after addition of KCl” value in the assay with rat hippocampal slice (50 mM KCl, hilus of dentate gyrus) is “increased”. Also, the “TPEF after addition of TPEN” value in the assay on rat hippocampal slice (hilus of dentate gyrus, FIG. 17) is on record as “clear reduction in TPEF”. Moreover, the “depth at which intracellular free Zn2+ is imaged in live tissue” value with rat hippocampal slice (rat hippocampal slice, 10 μM probe) is 80-150 μm.
